Assay results taken from article PMC10740580, “Benzothiazole-Phthalimide Hybrids as Anti-Breast Cancer and Antimicrobial Agents” (Antibiotics, 2023).
≈ marks a conversion by molar mass, not a printed value.

What was measured:
[1] = test system: Candida glabrata 15126; assay: Antifungal microdilution, C. glabrata ATCC 15126; assay type: cell-based; conditions: Nakaseomyces glabratus, microdilution CLSI M27-A3, 48 h, 37 °C, read-out: MIC C.g. 15126
Description: In accordance with CLSI guidelines, compounds 3a–h were tested against a variety of fungal strains (Candida albicans 10231, Candida albicans 90028, Candida glabrata 15126, and Candida parapsilosis 22019) belonging to the ATCC collection. Amphotericin B was utilized as a reference drug. A similar trend of results, or even better than that obtained against bacteria, was assessed against fungal strains. […] Also, in this case, compound 3h emerged as the best of the series, with MICs of 16 μg/mL against Candida glabrata and Candida parapsilosis strains and 32 μg/mL against Candida albicans strains.
A microdilution technique described by the Clinical and Laboratory Standards Institute (CLSI, M27-A3) was used to assess the antifungal activity. The following fungal strains, belonging to the ATCC collection and available as freeze-dried discs, were used: C. albicans ATCC 10231, C. albicans ATCC 90028, C. glabrata ATCC 15126, and C. parapsilosis ATCC 22019. Stock solutions were prepared and preserved with purity as previously described for the antibacterial studies. Each yeast strain’s pre-cultures were made in Sabouraud broth (SAB) and allowed to grow until they stopped at 37 °C. By using a spectrophotometric technique (530 nm, range 0.12–0.15), the turbidity of the yeast stock suspension was calibrated to 0.5 McFarland Standard. Next, the standardized suspension was diluted first at 1:50 with SAB and then at 1:20 in the same medium to have […]. A total of 100 µL of inoculum was seeded into each well. As a control for growth, several wells containing only inoculated broth were prepared. The plates were incubated for 48 h at 37 °C, and the MIC values were calculated as the final well with no fungal growth. […] MIC values were observed based on the absence of fungal growth in the final well. The MICs were calculated by conducting the antifungal test three times in duplicate. As a control, amphotericin B was used.

[2] = test system: Staphylococcus aureus 25923; assay: Broth microdilution, S. aureus ATCC 25923; assay type: cell-based; conditions: 37 °C; for MIC: Staphylococcus aureus, 25923, 24 h
From the text: Compounds 3a–h were examined in accordance with the Clinical Laboratory Standards Institute (CLSI) recommendations, by means of the broth microdilution method, against gram-positive bacteria (Staphylococcus aureus 25923, Staphylococcus aureus 29213, Staphylococcus aureus 43300, Enterococcus faecalis 29212) and gram-negative bacteria (Escherichia coli 25922, Klebsiella pneumoniae 13883, Pseudomonas aeruginosa 27853) belonging to the ATCC collection, using levofloxacin as a reference drug. Table 3 lists the results, expressed as MIC (µg/mL). […] The lack of activity observed for compound 3d could be conceivably due to its poor solubility in the culture medium containing the inoculum.
Following the recommendations of the CLSI (Clinical and Laboratory Standards Institute, 2012), the broth microdilution method was used to determine the in vitro minimum inhibitory concentrations (MICs, µg/mL).. The concentration of the investigated compounds was set to its highest value to create stock solutions. Then, the stock solutions were diluted 1:10 with Cation-Adjusted Mueller Hinton Broth (Oxoid, Milan, Italy). After that, a series of concentrations from 512 µg/mL to […] were obtained in the wells by performing two-fold serial dilutions in the appropriate test medium. The diluent used to create the stock solution was 100% DMSO. We used the following bacterial strains from the ATCC collection that were available as freeze-dried discs: gram-positive strains such as S. aureus ATCC 25923, 29213, and 43300, and E. faecalis ATCC 29212, and gram-negative ones such as E. coli ATCC 25922, K. pneuomoniae ATCC 13883, and P. aeruginosa ATCC 27853. To preserve the purity of cultures and to allow their reproducibility, cryovials of all microbial strains were set up in the medium and stored at −80 °C. Mueller Hinton Broth (MHB) was used to prepare pre-cultures of each bacterial strain, which were then incubated for 3–5 h at 37 °C. In accordance with CLSI procedure M7-A9, the turbidity of the bacterial cell suspension was calibrated to 0.5 McFarland Standard using a spectrophotometric approach (OD625 nm 0.08–0.10). The standardized suspension was then further diluted (1:100) with MHB to reach 1–2 × 10^6 CFU/mL. A 200 µL aliquot of the final inoculum was inserted into each well. As a control for growth, several wells containing only inoculated broth were prepared. The plates were incubated at 37 °C for 24 h, and the MIC values were calculated as the lowest concentration of compounds at which there was no optically detectable bacteria growth. Each experiment was carried out in duplicate and repeated twice to determine the MICs. Levofloxacin served as the study’s standard reference antibiotic. Additionally, the antibacterial activity of DMSO alone (used as a diluent for the investigated compounds) was examined; therefore, volumes of this solvent with a concentration of less than 5% were utilized throughout the experimentation.

Row | MIC [1] | MIC [2] | SMILES | MIC S.a. 25923 ([2]; 24 h)
1 | 32 µg/mL (≈ 114 µM) | 64 µg/mL (≈ 228 µM) | O=C1c2ccccc2C(=O)N1c1nc2ccccc2s1 [3a, 2-(1,3-benzothiazol-2-yl)-1H-isoindole-1,3(2H)-dione] | 
2 | 32 µg/mL (≈ 107 µM) | 64 µg/mL (≈ 215 µM) | O=C1c2ccccc2C(=O)N1c1nc2ccc(F)cc2s1 [3b, 2-(6-Fluoro-1,3-benzothiazol-2-yl)-1H-isoindole-1,3(2H)-dione] | 
3 | 64 µg/mL (≈ 184 µM) | 128 µg/mL (≈ 367 µM) | O=C1c2ccccc2C(=O)N1c1nc2ccc(C(F)(F)F)cc2s1 [3c, 2-[6-Trifluoromethyl-1,3-benzothiazol-2-yl]-1H-isoindole-1,3(2H)-dione] | 
4 | > 512 µg/mL | > 512 µg/mL | Cc1ccc2nc(N3C(=O)c4ccccc4C3=O)sc2c1 [3d, 2-[6-Methyl-1,3-benzothiazol-2-yl]-1H-isoindole-1,3(2H)-dione] | 
5 | 64 µg/mL (≈ 206 µM) | 32 µg/mL (≈ 103 µM) | COc1ccc2nc(N3C(=O)c4ccccc4C3=O)sc2c1 [3e, 2-[6-Methoxy-1,3-benzothiazol-2-yl]-1H-isoindole-1,3(2H)-dione] | 

Row | SMILES | MIC [1] | MIC [2] | MIC S.a. 25923 ([2]; 24 h)
6 | COc1cc2nc(N3C(=O)c4ccccc4C3=O)sc2cc1OC [3f, 2-[5,6-Dimethoxy-1,3-benzothiazol-2-yl]-1H-isoindole-1,3(2H)-dione] | 32 µg/mL (≈ 94 µM) | 32 µg/mL (≈ 94 µM) | 
7 | O=C1c2ccccc2C(=O)N1c1nc2ccc(O)cc2s1 [3g, 2-[6-Hydroxy-1,3-benzothiazol-2-yl]-1H-isoindole-1,3(2H)-dione] | 32 µg/mL (≈ 108 µM) | 32 µg/mL (≈ 108 µM) | 
8 | O=C1c2ccccc2C(=O)N1c1nc2ccc(Oc3ccccc3)cc2s1 [3h, 2-[6-Phenoxy-1,3-benzothiazol-2-yl]-1H-isoindole-1,3(2H)-dione] | 16 µg/mL (≈ 43 µM) | 16 µg/mL (≈ 43 µM) | 16 µg/mL (≈ 43 µM)
